Tests used:
Format in all cases: biochemical
15-lipoxygenase = biological target: T1, 15-lipoxygenase (Glycine max, UniProt P08170); assay: 15-lipoxygenase inhibition (15-lipoxygenase obtained from soybean); details: for inhibition at 10 µM: read-out: % Inhibition at Indicated Concentration, 15-lipoxygenase, 10 uM; for inhibition at 100 µM: read-out: % Inhibition at Indicated Concentration, 15-lipoxygenase, 100 uM
T1 construct: 15-lipoxygenase obtained from soybean; from tissue; host or cells: soybean
T1 sequence (P08170 1-839): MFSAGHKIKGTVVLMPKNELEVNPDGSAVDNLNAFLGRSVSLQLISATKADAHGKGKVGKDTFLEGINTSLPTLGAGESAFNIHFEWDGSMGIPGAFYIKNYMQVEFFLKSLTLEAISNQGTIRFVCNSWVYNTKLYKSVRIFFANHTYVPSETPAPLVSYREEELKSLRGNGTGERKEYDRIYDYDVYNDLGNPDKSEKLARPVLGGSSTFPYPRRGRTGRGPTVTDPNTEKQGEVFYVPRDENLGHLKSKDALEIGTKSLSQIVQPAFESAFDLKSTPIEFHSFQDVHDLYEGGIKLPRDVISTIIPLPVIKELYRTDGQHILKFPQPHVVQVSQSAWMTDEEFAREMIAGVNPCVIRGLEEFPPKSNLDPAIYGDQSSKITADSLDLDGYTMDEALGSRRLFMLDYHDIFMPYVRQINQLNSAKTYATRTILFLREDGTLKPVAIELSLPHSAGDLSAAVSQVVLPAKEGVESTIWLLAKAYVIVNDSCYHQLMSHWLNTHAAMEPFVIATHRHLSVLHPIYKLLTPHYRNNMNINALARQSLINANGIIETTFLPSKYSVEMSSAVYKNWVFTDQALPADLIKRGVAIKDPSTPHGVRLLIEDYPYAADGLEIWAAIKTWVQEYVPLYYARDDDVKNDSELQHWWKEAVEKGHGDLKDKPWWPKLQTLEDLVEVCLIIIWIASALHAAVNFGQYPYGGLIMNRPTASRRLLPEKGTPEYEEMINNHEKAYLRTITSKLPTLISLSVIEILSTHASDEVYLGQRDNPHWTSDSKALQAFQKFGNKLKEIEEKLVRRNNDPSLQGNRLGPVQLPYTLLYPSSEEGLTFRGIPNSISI
Experimental: (§1) The compounds of this invention are potent inhibitors of 5-, 12- and 15-lipoxygenase. An assay to determine 5-lipoxygenase activity was performed in incubations containing various concentrations of the test compound and the 20,000 G supernatant from 7.5×10^6 homogenized RBL-1 cells. Reactions were initiated by the addition of radiolabeled arachidonic acid and terminated by acidification and ether extraction. Reaction products were separated from nonconverted substrate by thin layer chromatography and measured by liquid scintillatiton spectroscopy. Inhibition of 5-lipoxygenase activity was calculated as the ratio of the amounts of product formed in the presence and absence of inhibitor.
(§2) The inhibitory activities of the compounds of this invention against 12- and 15-lipoxygenase can be determined in the foregoing assay in which 12-lipoxygenase obtained from human platelets, or 15-lipoxygenase obtained from soybean, is substituted for the 5-lipoxygenase-containing cell supernatant fraction.

12-lipoxygenase = biological target: T2, 12-lipoxygenase (Homo sapiens, UniProt P18054); assay: 12-lipoxygenase inhibition (12-lipoxygenase obtained from human platelets); details: for inhibition at 10 µM: read-out: % Inhibition at Indicated Concentration, 12-lipoxygenase, 10 uM; for inhibition at 100 µM: read-out: % Inhibition at Indicated Concentration, 12-lipoxygenase, 100 uM
T2 construct: 12-lipoxygenase obtained from human platelets; from tissue; host or cells: human platelets
T2 sequence (P18054 1-663): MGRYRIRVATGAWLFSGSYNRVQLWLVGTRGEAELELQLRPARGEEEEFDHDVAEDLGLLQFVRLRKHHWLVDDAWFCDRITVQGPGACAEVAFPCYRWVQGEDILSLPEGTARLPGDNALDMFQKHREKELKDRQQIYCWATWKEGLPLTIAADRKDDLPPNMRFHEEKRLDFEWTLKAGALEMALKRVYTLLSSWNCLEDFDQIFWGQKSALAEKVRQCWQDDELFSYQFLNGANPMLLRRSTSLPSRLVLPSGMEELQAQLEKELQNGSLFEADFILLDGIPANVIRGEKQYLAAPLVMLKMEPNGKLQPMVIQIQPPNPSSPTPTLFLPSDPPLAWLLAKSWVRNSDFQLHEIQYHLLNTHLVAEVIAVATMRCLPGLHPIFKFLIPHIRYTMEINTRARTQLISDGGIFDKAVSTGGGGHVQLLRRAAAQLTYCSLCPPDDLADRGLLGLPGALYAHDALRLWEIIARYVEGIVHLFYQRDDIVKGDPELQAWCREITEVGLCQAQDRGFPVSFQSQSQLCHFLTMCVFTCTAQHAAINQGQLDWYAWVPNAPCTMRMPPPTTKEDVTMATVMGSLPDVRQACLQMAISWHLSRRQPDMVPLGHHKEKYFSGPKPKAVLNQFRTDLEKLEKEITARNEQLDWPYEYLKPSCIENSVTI
Experimental: as §1, §2

5-lipoxygenase = biological target: T3, 5-lipoxygenase (Rattus norvegicus, UniProt P12527); assay: 5-Lipoxygenase IC50 determination (20,000 G supernatant from homogenized RBL-1 cells, radiolabeled arachidonic acid); details: RBL-1 cell 20,000 G supernatant; linear regression of % inhibition vs log concentration
T3 construct: 20,000 G supernatant from 7.5×10^6 homogenized RBL-1 cells; endogenous in cells; host or cells: RBL-1 cells (20,000 G supernatant of homogenate)
T3 sequence (P12527 1-673): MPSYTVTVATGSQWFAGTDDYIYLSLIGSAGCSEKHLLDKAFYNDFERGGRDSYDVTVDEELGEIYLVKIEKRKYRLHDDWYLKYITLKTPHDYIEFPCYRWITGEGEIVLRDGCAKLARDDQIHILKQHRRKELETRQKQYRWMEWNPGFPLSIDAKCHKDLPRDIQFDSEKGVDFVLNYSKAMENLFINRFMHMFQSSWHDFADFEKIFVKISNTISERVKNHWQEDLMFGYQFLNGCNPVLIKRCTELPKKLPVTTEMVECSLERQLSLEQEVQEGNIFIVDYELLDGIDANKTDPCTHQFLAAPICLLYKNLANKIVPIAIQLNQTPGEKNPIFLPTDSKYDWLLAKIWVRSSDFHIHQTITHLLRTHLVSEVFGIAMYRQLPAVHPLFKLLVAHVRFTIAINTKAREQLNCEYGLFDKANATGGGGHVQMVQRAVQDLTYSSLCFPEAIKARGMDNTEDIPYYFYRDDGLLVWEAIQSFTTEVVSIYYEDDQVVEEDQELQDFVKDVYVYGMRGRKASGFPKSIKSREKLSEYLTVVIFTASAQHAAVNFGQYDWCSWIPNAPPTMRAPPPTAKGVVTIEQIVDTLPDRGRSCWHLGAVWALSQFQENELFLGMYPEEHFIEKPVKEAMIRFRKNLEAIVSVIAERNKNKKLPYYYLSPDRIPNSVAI
Experimental: Reactions were initiated by the addition of radiolabeled arachidonic acid and terminated by acidification and ether extraction. Reaction products were separated from nonconverted substrate by thin layer chromatography and measured by liquid scintillatiton spectroscopy. Inhibition of 5-lipoxygenase activity was calculated as the ratio of the amounts of product formed in the presence and absence of inhibitor.

Row | inhibition at 10 µM (15-lipoxygenase) | inhibition at 100 µM (15-lipoxygenase) | inhibition at 10 µM (12-lipoxygenase) | inhibition at 100 µM (12-lipoxygenase) | SMILES | IC50 (5-lipoxygenase)
1 | 52% | 74% | 63% | 68% | CN(O)C(=O)C=Cc1ccc(-c2ccccc2)cc1 [Example 1, N-Methyl 3-(4-biphenyl)acrylohydroxamic acid] | –
2 | 43% | 85% | 99% | 96% | CN(O)C(=O)C=Cc1cccc(-c2ccccc2)c1 [Example 2, N-methyl-3-(3-biphenyl)-acrylohydroxamic acid] | –
3 | 0% | 30% | 86% | 97% | O=C(NO)c1ccc(-c2ccccc2)cc1 [Example 7, 4-biphenyl hydroxamic acid] | 4100 nM
4 | 33% | 33% | – | – | O=C(NO)c1cccc(-c2ccccc2)c1 [Example 8, 3-biphenyl hydroxamic acid] | 6000 nM
5 | – | – | – | – | O=C(NO)c1ccc2c(ccc3ccccc32)c1 [Example 12, 2-Phenanthrylhydroxamic acid] | 1900 nM

Row | SMILES | inhibition at 10 µM (15-lipoxygenase) | inhibition at 100 µM (15-lipoxygenase) | inhibition at 10 µM (12-lipoxygenase) | inhibition at 100 µM (12-lipoxygenase) | IC50 (5-lipoxygenase)
6 | O=C(NO)c1ccc2ccc3ccccc3c2c1 [Example 13, 3-Phenanthryl hydroxamic acid] | 25% | 39% | – | – | 1200 nM
